# In ChEMBL document CHEMBL1132048, “Optimisation of the P2 pharmacophore in a series of thrombin inhibitors: ion-dipole interactions with lysine 60G” (Bioorg Med Chem Lett, 1999):
# System: not listed separately
# Assay: pKa was determined
# Assay type: physicochemical
row,Structure (SMILES),pKa
1,NCCCC[C@H](N)C(=O)O [LYSINE],10.2

# Molecular target: Prothrombin (Homo sapiens, UniProt P00734)
# Assay: Inhibition of human thrombin (in vitro)
row,Ki [µM],Structure (SMILES)
1,0.038,CNC(=O)OCCC1CCN(C(=O)[C@H](Cc2nc3ccccc3s2)NS(=O)(=O)c2cccc3c2NCC(C)(C)C3)CC1
2,0.093,CC1(C)CNc2c(cccc2S(=O)(=O)N[C@@H](Cc2nc3ccccc3s2)C(=O)N2CCC(CCCl)CC2)C1
3,0.24,CCC1CCN(C(=O)[C@H](Cc2nc3ccccc3s2)NS(=O)(=O)c2cccc3c2NCC(C)(C)C3)CC1
4,0.065,CCNC(=O)NCCC1CCN(C(=O)[C@H](Cc2nc3ccccc3s2)NS(=O)(=O)c2cccc3c2NCC(C)(C)C3)CC1
5,0.052,CC1(C)CNc2c(cccc2S(=O)(=O)N[C@@H](Cc2nc3ccccc3s2)C(=O)N2CCC(CCNC(=O)OC(C)(C)C)CC2)C1
6,0.35,CC1(C)CNc2c(cccc2S(=O)(=O)N[C@@H](Cc2nc3ccccc3s2)C(=O)N2CCN(CCO)CC2)C1
7,38.3,CN(C)CCC1CCN(C(=O)[C@H](Cc2nc3ccccc3s2)NS(=O)(=O)c2cccc3c2NCC(C)(C)C3)CC1
8,0.056,COC(=O)NCCC1CCN(C(=O)[C@H](Cc2nc3ccccc3s2)NS(=O)(=O)c2cccc3c2NCC(C)(C)C3)CC1
9,0.182,CCCCNC(=O)NCCC1CCN(C(=O)[C@H](Cc2nc3ccccc3s2)NS(=O)(=O)c2cccc3c2NCC(C)(C)C3)CC1
10,1,CN(C)C(=O)NCCC1CCN(C(=O)[C@H](Cc2nc3ccccc3s2)NS(=O)(=O)c2cccc3c2NCC(C)(C)C3)CC1
11,1.18,CC1(C)CNc2c(cccc2S(=O)(=O)N[C@@H](Cc2nc3ccccc3s2)C(=O)N2CCC(CCN)CC2)C1
12,0.654,CC(=O)NCCC1CCN(C(=O)[C@H](Cc2nc3ccccc3s2)NS(=O)(=O)c2cccc3c2NCC(C)(C)C3)CC1
13,0.024,CNC(=O)NCCC1CCN(C(=O)[C@H](Cc2nc3ccccc3s2)NS(=O)(=O)c2cccc3c2NCC(C)(C)C3)CC1
14,0.119,CNS(=O)(=O)NCCC1CCN(C(=O)[C@H](Cc2nc3ccccc3s2)NS(=O)(=O)c2cccc3c2NCC(C)(C)C3)CC1
15,7.83,CC1(C)CNc2c(cccc2S(=O)(=O)N[C@@H](Cc2nc3ccccc3s2)C(=O)N2CCC(CCC(=O)O)CC2)C1
16,0.026,CC1(C)CNc2c(cccc2S(=O)(=O)N[C@@H](Cc2nc3ccccc3s2)C(=O)N2CCC(CCF)CC2)C1
17,0.079,CC1(C)CNc2c(cccc2S(=O)(=O)N[C@@H](Cc2nc3ccccc3s2)C(=O)N2CCC(CCO)CC2)C1
